How the values were obtained:
Format in all cases: cell-based
[1] = tested on: Mycosphaerella arachidis (syn. Cercospora arachidicola); test: Mycosphaerella arachidis (brown leaf spot of groundnut) growth inhibition in nutrient broth, microtiter plate
Procedure: Mycosphaerella arachidis (syn. Cercospora arachidicola), Brown Leaf Spot of Groundnut (Peanut):
(§1) Conidia of the fungus from cryogenic storage were directly mixed into nutrient broth (potato dextrose broth). After placing a (DMSO) solution of the test compounds into a microtiter plate (96-well format) the nutrient broth containing the fungal spores was added. The test plates were incubated at 24° C. and the inhibition of growth was determined photometrically after approximately 5-6 days at 620 nm.

[2] = tested on: Botrvtis cinerea; test: Botrytis cinerea (gray mould) growth inhibition in nutrient broth, microtiter plate
Procedure: Botrvtis cinerea (Gray Mould):
as §1, with “72 hours.” for “approximately 5-6 days at 620 nm.”

[3] = tested on: Septoria tritici; test: Septoria tritici (leaf blotch) growth inhibition in nutrient broth, microtiter plate
Procedure: Septoria tritici (Leaf Blotch):
as §1, with “72 hours.” for “approximately 5-6 days at 620 nm.”

[4] = tested on: Glomerella lagenarium (syn. Colletotrichum lagenarium); test: Glomerella lagenarium (anthracnose of cucurbits) growth inhibition in nutrient broth, microtiter plate
Procedure: Glomerella lagenarium (syn. Colletotrichum lagenarium), Anthracnose of Cucurbits:
as §1, with “72 hours” for “approximately 5-6 days”

[5] = tested on: Fusarium culmorum; test: Fusarium culmorum (root rot) growth inhibition in nutrient broth, microtiter plate; conditions: for AVERAGE DEAD IN % Epoxiconazole: Epoxiconazole alone; for AVERAGE DEAD IN % Epoxiconazole / AVERAGE DEAD IN % COMPOUND I-A2: 48 hrs, 24° C.; for AVERAGE DEAD IN % COMPOUND I-A2: COMPOUND I-A2 alone
Procedure: Fusarium culmorum (Root Rot):
as §1, with “48 hrs.” for “approximately 5-6 days at 620 nm.”

[6] = Epoxiconazole alone 0.0078125 ppm AI
[7] = Epoxiconazole alone 0.015625 ppm AI
[8] = Epoxiconazole alone 0.03125 ppm AI
[9] = Epoxiconazole alone 0.25 ppm AI
[10] = Azoxystrobin alone 0.015625 ppm AI
[11] = Azoxystrobin alone 0.03125 ppm AI
[12] = Azoxystrobin alone 0.0625 ppm AI
[13] = Fluxapyroxad alone 0.125 ppm AI
[14] = Pyraclostrobin alone 0.00390625 ppm AI
[15] = Pyraclostrobin alone 0.5 ppm AI

Fc1ccc([C@]2(Cn3cncn3)O[C@H]2c2ccccc2Cl)cc1 (racemic) [Epoxiconazole]
100%: AVERAGE DEAD IN % ([2]; Epoxiconazole alone 1 ppm AI) | AVERAGE DEAD IN % ([2]; Epoxiconazole alone 2 ppm AI)
50%: AVERAGE DEAD IN % ([3]; Epoxiconazole alone 0.0625 ppm AI) | AVERAGE DEAD IN % ([4]; Epoxiconazole alone 0.5 ppm AI)
90%: AVERAGE DEAD IN % ([2]; Epoxiconazole alone 0.5 ppm AI) | AVERAGE DEAD IN % [3, 9] | AVERAGE DEAD IN % ([3]; Epoxiconazole alone 0.5 ppm AI) | AVERAGE DEAD IN % ([3]; Epoxiconazole alone 1 ppm AI) | AVERAGE DEAD IN % ([3]; Epoxiconazole alone 2 ppm AI) | AVERAGE DEAD IN % ([4]; Epoxiconazole alone 2 ppm AI)
0%: AVERAGE DEAD IN % [1, 6] | AVERAGE DEAD IN % [1, 7] | AVERAGE DEAD IN % [3, 6] | AVERAGE DEAD IN % [3, 7]
20%: AVERAGE DEAD IN % [1, 8] | AVERAGE DEAD IN % [2, 9] | AVERAGE DEAD IN % [3, 8] | AVERAGE DEAD IN % [4, 9] | AVERAGE DEAD IN % Epoxiconazole ([5]; 0.125 PPM AI) | AVERAGE DEAD IN % Epoxiconazole ([5]; 0.25 PPM AI) | AVERAGE DEAD IN % Epoxiconazole ([5]; 0.5 PPM AI) | AVERAGE DEAD IN % Epoxiconazole ([5]; 1 PPM AI) | AVERAGE DEAD IN % Epoxiconazole ([5]; 2 PPM AI)
70%: AVERAGE DEAD IN % ([3]; Epoxiconazole alone 0.125 ppm AI) | AVERAGE DEAD IN % ([4]; Epoxiconazole alone 1 ppm AI)

CO/C=C(/C(=O)OC)c1ccccc1Oc1cc(Oc2ccccc2C#N)ncn1 [Azoxystrobin]
50%: AVERAGE DEAD IN % [4, 11]
0%: AVERAGE DEAD IN % ([1]; Azoxystrobin alone 0.0078125 ppm AI)
70%: AVERAGE DEAD IN % [1, 11] | AVERAGE DEAD IN % [3, 12] | AVERAGE DEAD IN % [4, 12]
90%: AVERAGE DEAD IN % [1, 12] | AVERAGE DEAD IN % ([4]; Azoxystrobin alone 0.125 ppm AI)
20%: AVERAGE DEAD IN % [1, 10] | AVERAGE DEAD IN % [3, 11] | AVERAGE DEAD IN % [4, 10]

O=C(Nc1ccccc1-c1ccc(Cl)cc1)c1cccnc1Cl [Boscalid]
100%: AVERAGE DEAD IN % ([1]; Boscalid alone 0.25 ppm AI) | AVERAGE DEAD IN % ([1]; Boscalid alone 0.5 ppm AI) | AVERAGE DEAD IN % ([3]; Boscalid alone 2 ppm AI)
90%: AVERAGE DEAD IN % ([2]; Boscalid alone 2 ppm AI) | AVERAGE DEAD IN % ([3]; Boscalid alone 1 ppm AI)
70%: AVERAGE DEAD IN % ([1]; Boscalid alone 0.125 ppm AI) | AVERAGE DEAD IN % ([2]; Boscalid alone 1 ppm AI)
50%: AVERAGE DEAD IN % ([2]; Boscalid alone 0.5 ppm AI) | AVERAGE DEAD IN % ([3]; Boscalid alone 0.5 ppm AI)
20%: AVERAGE DEAD IN % ([2]; Boscalid alone 0.0625 ppm AI) | AVERAGE DEAD IN % ([2]; Boscalid alone 0.125 ppm AI) | AVERAGE DEAD IN % ([2]; Boscalid alone 0.25 ppm AI) | AVERAGE DEAD IN % ([3]; Boscalid alone 0.25 ppm AI)

Cn1cc(C(=O)Nc2ccccc2-c2cc(F)c(F)c(F)c2)c(C(F)F)n1 [Fluxapyroxad]
50%: AVERAGE DEAD IN % ([1]; Fluxapyroxad alone 0.0625 ppm AI)
100%: AVERAGE DEAD IN % ([1]; Fluxapyroxad alone 0.25 ppm AI) | AVERAGE DEAD IN % ([3]; Fluxapyroxad alone 0.5 ppm AI) | AVERAGE DEAD IN % ([3]; Fluxapyroxad alone 1 ppm AI)
0%: AVERAGE DEAD IN % ([1]; Fluxapyroxad alone 0.015625 ppm AI)
20%: AVERAGE DEAD IN % ([1]; Fluxapyroxad alone 0.03125 ppm AI) | AVERAGE DEAD IN % [3, 13]
90%: AVERAGE DEAD IN % [1, 13]
70%: AVERAGE DEAD IN % ([3]; Fluxapyroxad alone 0.25 ppm AI)

Cc1cc(C2=NOC(c3cc(Cl)cc(Cl)c3)(C(F)(F)F)C2)ccc1C(=O)NCC(=O)NCC(F)(F)F (stereo not drawn) [I-A2]
0%: AVERAGE DEAD IN % ([1]; I-A2 alone 0.1171875 ppm AI) | AVERAGE DEAD IN % ([1]; I-A2 alone 0.234375 ppm AI) | AVERAGE DEAD IN % ([1]; I-A2 alone 0.46875 ppm AI) | AVERAGE DEAD IN % ([1]; I-A2 alone 0.9375 ppm AI) | AVERAGE DEAD IN % ([1]; I-A2 alone 1.875 ppm AI) | AVERAGE DEAD IN % ([1]; I-A2 alone 3.75 ppm AI) | AVERAGE DEAD IN % ([1]; I-A2 alone 7.5 ppm AI) | AVERAGE DEAD IN % ([1]; I-A2 alone 15 ppm AI) | AVERAGE DEAD IN % ([2]; I-A2 alone 0.46875 ppm AI) | AVERAGE DEAD IN % ([2]; I-A2 alone 0.9375 ppm AI) | AVERAGE DEAD IN % ([2]; I-A2 alone 1.875 ppm AI) | AVERAGE DEAD IN % ([2]; I-A2 alone 3.75 ppm AI) | AVERAGE DEAD IN % ([2]; I-A2 alone 7.5 ppm AI) | AVERAGE DEAD IN % ([2]; I-A2 alone 15 ppm AI) | AVERAGE DEAD IN % ([2]; I-A2 alone 30 ppm AI) | AVERAGE DEAD IN % ([2]; I-A2 alone 60 ppm AI) | AVERAGE DEAD IN % ([3]; I-A2 alone 0.1171875 ppm AI) | AVERAGE DEAD IN % ([3]; I-A2 alone 0.234375 ppm AI) | AVERAGE DEAD IN % ([3]; I-A2 alone 0.46875 ppm AI) | AVERAGE DEAD IN % ([3]; I-A2 alone 0.9375 ppm AI) | AVERAGE DEAD IN % ([3]; I-A2 alone 1.875 ppm AI) | AVERAGE DEAD IN % ([3]; I-A2 alone 3.75 ppm AI) | AVERAGE DEAD IN % ([3]; I-A2 alone 7.5 ppm AI) | AVERAGE DEAD IN % ([3]; I-A2 alone 15 ppm AI) | AVERAGE DEAD IN % ([3]; I-A2 alone 30 ppm AI) | AVERAGE DEAD IN % ([3]; I-A2 alone 60 ppm AI) | AVERAGE DEAD IN % ([4]; I-A2 alone 0.1171875 ppm AI) | AVERAGE DEAD IN % ([4]; I-A2 alone 0.234375 ppm AI) | AVERAGE DEAD IN % ([4]; I-A2 alone 0.46875 ppm AI) | AVERAGE DEAD IN % ([4]; I-A2 alone 0.9375 ppm AI) | AVERAGE DEAD IN % ([4]; I-A2 alone 1.875 ppm AI) | AVERAGE DEAD IN % ([4]; I-A2 alone 3.75 ppm AI) | AVERAGE DEAD IN % ([4]; I-A2 alone 7.5 ppm AI) | AVERAGE DEAD IN % ([4]; I-A2 alone 15 ppm AI) | AVERAGE DEAD IN % ([4]; I-A2 alone 30 ppm AI) | AVERAGE DEAD IN % ([4]; I-A2 alone 60 ppm AI) | AVERAGE DEAD IN % COMPOUND I-A2 ([5]; 0.9375 PPM AI) | AVERAGE DEAD IN % COMPOUND I-A2 ([5]; 1.875 PPM AI) | AVERAGE DEAD IN % COMPOUND I-A2 ([5]; 3.75 PPM AI) | AVERAGE DEAD IN % COMPOUND I-A2 ([5]; 7.5 PPM AI) | AVERAGE DEAD IN % COMPOUND I-A2 ([5]; 15 PPM AI) | AVERAGE DEAD IN % COMPOUND I-A2 ([5]; 30 PPM AI) | AVERAGE DEAD IN % COMPOUND I-A2 ([5]; 60 PPM AI) | AVERAGE DEAD IN % ([5]; I-A2 alone 3.75 ppm AI) | AVERAGE DEAD IN % ([5]; I-A2 alone 7.5 ppm AI) | AVERAGE DEAD IN % ([5]; I-A2 alone 15 ppm AI) | AVERAGE DEAD IN % ([5]; I-A2 alone 30 ppm AI) | AVERAGE DEAD IN % ([5]; I-A2 alone 60 ppm AI)

COC(=O)N(OC)c1ccccc1COc1ccn(-c2ccc(Cl)cc2)n1 [Pyraclostrobin]
50%: AVERAGE DEAD IN % ([2]; Pyraclostrobin alone 1 ppm AI)
70%: AVERAGE DEAD IN % ([2]; Pyraclostrobin alone 2 ppm AI) | AVERAGE DEAD IN % [4, 14]
90%: AVERAGE DEAD IN % [1, 14] | AVERAGE DEAD IN % [3, 14] | AVERAGE DEAD IN % ([4]; Pyraclostrobin alone 0.0078125 ppm AI)
20%: AVERAGE DEAD IN % ([2]; Pyraclostrobin alone 0.125 ppm AI) | AVERAGE DEAD IN % ([2]; Pyraclostrobin alone 0.25 ppm AI) | AVERAGE DEAD IN % [2, 15] | AVERAGE DEAD IN % [5, 15] | AVERAGE DEAD IN % ([5]; Pyraclostrobin alone 1 ppm AI) | AVERAGE DEAD IN % ([5]; Pyraclostrobin alone 2 ppm AI)

Reference: patent publication US20130203591A1, “PESTICIDAL MIXTURES INCLUDING ISOXAZOLINE DERIVATIVES” (SYNGENTA CROP PROTECTION LLC, priority 2010, published 2013)
